Assay results as given in paper PMC10281321, “Discovery of an effective anti-inflammatory agent for inhibiting the activation of NF-κB” (Journal of Enzyme Inhibition and Medicinal Chemistry, 2023).

Legend:
Assay type in all cases: cell-based
[1] = test system: LPS-stimulated RAW264.7 cells; assay: NO release inhibition in LPS-stimulated RAW264.7 cells (Griess reagent); conditions: for IC50: Mus musculus, LPS-stimulated RAW264.7 cells, Griess Reagent; for anti-inflammatory activity (in words): SAR summary covering NO release and NF-κB reporter inhibition
Description: After incubated for 24 hours, cells were treated with tested compounds for different
concentrations(3.125,6.25,12.5,25 and 50μM) for 1 h, and then treated with 1 μg/mL LPS
for further 24 h. The supernatants were collected and NO level was measured using
Griess reagent (Beyotime, China). […]

[2] = Cytotoxicity by MTT assay
NF-κB = NF-κB transcriptional activity dual-luciferase reporter assay, TNF-α stimulated; conditions: Homo sapiens, HEK-293T, HEK293T cells transfected with NF-κB reporter plasmid, stimulated by TNF-α
Description: 4.5. NF-κB transcriptional activity assay
HEK293T cells were seeded into 96 well plate at a density of 1×10^5 cells per well. After incubated for 24 hours, cells were transfected with NF-κB reporter plasmid at 100 ng/well using lip2000.Six hours later, the medium was replaced by fresh medium containing tested compounds with different concentrations. Then incubated for another hour, TNF-α was added for a final concentration at 10 ng/mL.12 hours later, the cell lysate was collected and the RLU was measured by microplate reader. […]

| Structure (SMILES) | IC50 [1] [µM] | IC50 (NF-κB) [µM] | anti-inflammatory activity (in words) [1] | IC50 [2] [µM] | cytotoxicity (in words) [2] |
| --- | --- | --- | --- | --- | --- |
| CCc1ccc(-c2cnc(N)c(C(=O)Nc3ccc(C)cc3)c2)cc1 [Compound 7] | 26.7 ± 3.2 | > 2 | – | > 25 | – |
| CC(=O)Nc1ccc(NC(=O)c2cc(-c3cccc(C(F)(F)F)c3)cnc2N)cc1 [Compound 41] | 8.4 ± 1.7 | 0.307 ± 0.0214 | – | > 50 | – |
| CCc1ccc(-c2ccnc(C(=O)Nc3ccc(NC(C)=O)cc3)c2)cc1 [Compound 26] | 19.5 ± 3.2 | 1.96 ± 0.0535 | – | > 25 | – |
| CC(=O)Nc1ccc(NC(=O)c2cc(-c3ccc(C)cc3)cnc2N)cc1 [Compound 28] | 24.2 ± 4.1 | > 2 | anti-inflammatory activity decreased significantly | > 50 | – |
| CCc1ccc(-c2cnc(N)c(C(=O)Nc3cccc(N)c3)c2)cc1 [Compound 11] | 1.7 ± 0.9 | 0.0958 ± 0.0062 | – | > 25 | – |
| COc1ccc(-c2cnc(N)c(C(=O)Nc3ccc(NC(C)=O)cc3)c2)c(OC)c1OC [Compound 34] | > 50 | > 2 | – | > 50 | – |
| CCc1ccc(-c2cc(C(=O)Nc3ccc(NC(C)=O)cc3)ccn2)cc1 [Compound 24] | 14.1 ± 1.7 | 0.763 ± 0.0151 | – | > 25 | – |
| CC(=O)Nc1ccc(NC(=O)c2cc(-c3cccc(F)c3)cnc2N)cc1 [Compound 39] | > 50 | > 2 | – | > 50 | – |
| CCc1ccc(-c2cnc(N)c(C(=O)Nc3ccc(N)cc3)c2)cc1 [Compound 10] | 2.3 ± 0.9 | 0.42 ± 0.0104 | – | 7.3 ± 1.2 | – |
| COc1ccc(-c2cnc(N)c(C(=O)Nc3ccc(NC(C)=O)cc3)c2)c(F)c1 [Compound 52] | > 50 | 1.42 ± 0.0247 | – | > 50 | – |
| CCc1ccc(NC(=O)c2cc(-c3ccc(CC)cc3)cnc2N)cc1 [Compound 19] | 28.5 ± 2.1 | > 2 | – | > 25 | – |
| CCc1ccc(-c2cnc(N)c(C(=O)Nc3ccc(C(C)C)cc3)c2)cc1 [Compound 21] | > 50 | > 2 | – | > 25 | – |
| CC(=O)Nc1ccc(NC(=O)c2cc(-c3cccc(C)c3)cnc2N)cc1 [Compound 29] | > 50 | > 2 | anti-inflammatory activity decreased significantly | > 50 | – |
| COc1ccccc1-c1cnc(N)c(C(=O)Nc2ccc(NC(C)=O)cc2)c1 [Compound 33] | > 50 | > 2 | – | > 50 | – |
| CC(=O)Nc1ccc(NC(=O)c2cc(-c3ccc(C(F)(F)F)cc3)cnc2N)cc1 [Compound 40] | 26.5 ± 3 | > 2 | – | > 50 | – |
| CCc1ccc(-c2cnc(N)c(C(=O)Nc3cccc(C)c3)c2)cc1 [Compound 8] | 15.2 ± 2.8 | 1.329 ± 0.0115 | – | > 25 | – |
| CC(=O)Nc1ccc(NC(=O)c2cc(-c3ccccc3Cl)cnc2N)cc1 [Compound 37] | > 50 | > 2 | – | > 50 | – |
| CC(=O)Nc1ccc(NC(=O)c2cc(-c3cccc(C#N)c3)cnc2N)cc1 [Compound 47] | 28.9 ± 2.1 | > 2 | – | > 50 | – |
| CC(=O)Nc1ccc(NC(=O)c2cc(-c3ccc(S(C)(=O)=O)cc3)cnc2N)cc1 [Compound 30] | 17.8 ± 2.7 | 1.04 ± 0.0175 | – | > 50 | – |
| CCc1ccc(-c2cnc(N)c(C(=O)Nc3ccc(F)cc3)c2)cc1 [Compound 16] | > 50 | > 2 | – | > 25 | – |
| CC(=O)Nc1ccc(NC(=O)c2cc(-c3cccc(Cl)c3)cnc2N)cc1 [Compound 36] | > 50 | > 2 | – | > 50 | – |
| Cc1ccc(S(=O)(=O)/C=C/C#N)cc1 [Bay11-7082, reference compound] | 2.1 ± 0.7 | 0.0915 ± 0.0103 | – | 22.7 ± 3.4 | – |
| CC(=O)Nc1ccc(NC(=O)c2cc(-c3ccccc3C#N)cnc2N)cc1 [Compound 48] | > 50 | > 2 | – | > 50 | – |
| CCc1ccc(-c2cnc(N)c(C(=O)Nc3ccccc3N)c2)cc1 [Compound 12] | 0.9 ± 0.5 | 0.571 ± 0.0093 | – | 4.7 ± 1 | – |
| CC(=O)Nc1ccc(NC(=O)c2cc(-c3cccc(O)c3)cnc2N)cc1 [Compound 44] | > 50 | > 2 | – | > 50 | – |
| CC(=O)Nc1ccc(NC(=O)c2cc(-c3ccc(F)cc3)cnc2N)cc1 [Compound 38] | 13.7 ± 1.8 | 0.827 ± 0.0186 | – | > 50 | – |
| COc1cccc(-c2cnc(N)c(C(=O)Nc3ccc(NC(C)=O)cc3)c2)c1 [Compound 32] | > 50 | > 2 | – | > 50 | – |
| COc1ccc(-c2cnc(N)c(C(=O)Nc3ccc(NC(C)=O)cc3)c2)cc1 [Compound 31] | > 50 | > 2 | – | > 50 | – |

Second part, led by results:

| IC50 [1] [µM] | IC50 (NF-κB) [µM] | Structure (SMILES) | anti-inflammatory activity (in words) [1] | IC50 [2] [µM] | cytotoxicity (in words) [2] |
| --- | --- | --- | --- | --- | --- |
| 3.2 ± 1.1 | 0.167 ± 0.0084 | CCc1ccc(-c2cnc(N)c(C(=O)Nc3cccc(NC(C)=O)c3)c2)cc1 [Compound 14] | strong anti-inflammatory activity | > 25 | – |
| 10.2 ± 5.4 | 0.7139 ± 0.0042 | CCc1ccc(-c2cnc(N)c(C(=O)Nc3ccc(NC(C)=O)cc3)c2)cc1 [Compound 13] | – | > 25 | cytotoxicity is reduced |
| 32.7 ± 3.4 | > 2 | CCc1ccc(-c2cccc(C(=O)Nc3ccc(NC(C)=O)cc3)c2)cc1 [Compound 23] | – | > 25 | – |
| 22 ± 0.8 | > 2 | CCc1ccc(-c2cnc(N)c(C(=O)Nc3ccc(OC)cc3)c2)cc1 [Compound 20] | – | > 25 | – |
| 21.5 ± 2.6 | 1.11 ± 0.0124 | CCc1ccc(-c2cc(C(=O)Nc3ccc(NC(C)=O)cc3)cnc2N)cc1 [Compound 27] | – | > 25 | – |
| > 50 | > 2 | CC(=O)Nc1ccc(NC(=O)c2cc(-c3ccc(O)cc3)cnc2N)cc1 [Compound 43] | – | > 50 | – |
| > 50 | > 2 | CC(=O)Nc1ccc(NC(=O)c2cc(-c3ccc(C#N)cc3)cnc2N)cc1 [Compound 46] | – | > 50 | – |
| > 50 | > 2 | CCc1ccc(-c2cnc(N)c(C(=O)Nc3ccc(OC(F)(F)F)cc3)c2)cc1 [Compound 18] | loss of anti-inflammatory activity | > 25 | – |
| > 50 | > 2 | CC(=O)Nc1ccc(NC(=O)c2cc(-c3ccc(C=O)c(C)c3)cnc2N)cc1 [Compound 49] | – | > 50 | – |
| > 50 | > 2 | CCc1ccc(-c2cnc(N)c(C(=O)Nc3ccc(Cl)cc3)c2)cc1 [Compound 17] | – | > 25 | – |
| 4.2 ± 0.8 | 0.207 ± 0.013 | CC(=O)Nc1ccc(NC(=O)c2cc(-c3ccc(Cl)cc3)cnc2N)cc1 [Compound 35] | significantly improved the anti-inflammatory activity | > 50 | – |
| > 50 | > 2 | CCc1ccc(-c2cnc(N)c(C(=O)Nc3ccc(C(N)=O)cc3)c2)cc1 [Compound 22] | loss of anti-inflammatory activity | > 25 | – |
| 19.7 ± 2.6 | 1.62 ± 0.0132 | CCc1ccc(-c2cnc(N)c(C(=O)Nc3ccccc3)c2)cc1 [Compound 6] | – | > 25 | – |
| 8.6 ± 1.9 | 0.577 ± 0.0216 | CC(=O)Nc1ccc(NC(=O)c2cc(-c3ccc(F)c(C)c3)cnc2N)cc1 [Compound 50] | superior anti-inflammatory activity | > 50 | – |
| 30.2 ± 4 | > 2 | CCc1ccc(-c2cnc(N)c(C(=O)Nc3ccccc3C)c2)cc1 [Compound 9] | – | > 25 | – |
| > 50 | > 2 | CC(=O)Nc1ccc(NC(=O)c2cc(-c3ccccc3O)cnc2N)cc1 [Compound 45] | – | > 50 | – |
| 14.6 ± 2.3 | 1.01 ± 0.0184 | CC(=O)Nc1ccc(NC(=O)c2cc(-c3ccccc3C(F)(F)F)cnc2N)cc1 [Compound 42] | – | > 50 | – |
| 1.1 ± 0.4 | 0.532 ± 0.0135 | CCc1ccc(-c2cnc(N)c(C(=O)Nc3ccccc3NC(C)=O)c2)cc1 [Compound 15] | strong anti-inflammatory activity | 3.2 ± 0.8 | – |
| 25.4 ± 3.1 | 1.33 ± 0.0163 | CCc1ccc(-c2cncc(C(=O)Nc3ccc(NC(C)=O)cc3)c2)cc1 [Compound 25] | – | > 25 | – |
